Here are results for 5 compounds from patent US20260028374A1, “EPIDERMAL GROWTH FACTOR RECEPTOR INHIBITORS” (FILAMON LTD, priority 2023, published 2026).

Square brackets hold non-standard residues; d marks the D form. Peptide text beside a SMILES is read from it. 2Nal = N[C@@H](Cc1ccc2ccccc2c1)C(=O)O; d1Nal = N[C@H](Cc1cccc2ccccc12)C(=O)O

One test has as its system H3255. Conditions: H3255, EGFR - L858R, cited from earlier work.
A further test deals with H1975. The conditions noted are these: H1975, EGFR- L858R/T790M, cited from earlier work.
In test [1] the target is T1, EGFR (Homo sapiens, UniProt P00533). Briefly: Western blot of EGFR in PC-3 cells. In kind it is cell-based. Conditions: PC-3, 100 μM, time course 3, 16, 24 and 48 hours. As to the method: (§1) FIG. 3. (a) PC-3 cells treated with DMSO (0.5%), FLM-c2 (100 μM), D1-D3 (100 μM) or EGF (50 ng/mL) for 24 h, detected for EGFR and GAPDH. (b) PC-3 cells tagged with EGFR-EGFP and lysotracker treated with DMSO (0.5%) or D3 (100 μM) for 24 h.
T1 sequence (P00533 25-1210): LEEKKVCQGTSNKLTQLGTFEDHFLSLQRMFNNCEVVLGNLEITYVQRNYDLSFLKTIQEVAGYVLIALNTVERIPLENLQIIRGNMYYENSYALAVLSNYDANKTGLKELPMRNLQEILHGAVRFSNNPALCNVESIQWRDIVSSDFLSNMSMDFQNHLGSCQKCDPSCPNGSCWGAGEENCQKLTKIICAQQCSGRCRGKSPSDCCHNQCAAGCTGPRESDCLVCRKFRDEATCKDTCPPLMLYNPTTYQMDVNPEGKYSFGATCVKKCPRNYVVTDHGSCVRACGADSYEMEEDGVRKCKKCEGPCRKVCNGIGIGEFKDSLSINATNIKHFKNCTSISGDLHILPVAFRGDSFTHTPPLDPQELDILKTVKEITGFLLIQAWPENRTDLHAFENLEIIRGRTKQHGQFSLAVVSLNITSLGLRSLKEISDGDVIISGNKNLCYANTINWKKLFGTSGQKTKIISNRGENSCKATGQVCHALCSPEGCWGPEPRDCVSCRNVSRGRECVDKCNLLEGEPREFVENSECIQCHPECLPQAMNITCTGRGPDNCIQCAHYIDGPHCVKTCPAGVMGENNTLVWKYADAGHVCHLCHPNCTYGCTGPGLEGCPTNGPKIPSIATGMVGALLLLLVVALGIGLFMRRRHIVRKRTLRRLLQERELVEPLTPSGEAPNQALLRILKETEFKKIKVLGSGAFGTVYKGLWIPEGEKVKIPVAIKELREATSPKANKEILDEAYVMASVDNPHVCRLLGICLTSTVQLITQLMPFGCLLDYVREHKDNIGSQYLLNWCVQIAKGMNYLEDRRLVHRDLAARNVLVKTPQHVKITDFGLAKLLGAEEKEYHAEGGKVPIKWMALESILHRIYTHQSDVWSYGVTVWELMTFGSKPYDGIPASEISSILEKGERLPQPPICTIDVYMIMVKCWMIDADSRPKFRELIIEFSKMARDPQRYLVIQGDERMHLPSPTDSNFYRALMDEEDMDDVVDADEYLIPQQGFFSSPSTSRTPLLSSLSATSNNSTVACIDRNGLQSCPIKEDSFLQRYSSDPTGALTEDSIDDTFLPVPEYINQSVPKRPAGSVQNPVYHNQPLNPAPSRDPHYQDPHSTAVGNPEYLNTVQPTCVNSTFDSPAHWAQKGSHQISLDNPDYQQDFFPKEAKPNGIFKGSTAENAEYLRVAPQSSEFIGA
FIG. 4. (a) PC-3 cells were treated with D1-D3 (100 μM) for 3, 16, 24 and 48 hours. EGFR and ß-Actin ratio was detected. (b) the EGFR:ß-Actin ratio was plotted after normalising to DMSO control.
PC-3 cells were seeded in a 6 well plate at 200,000 cells/well overnight at 37° C. and 5% C02. Media was removed, cells were washed with PBS and serum free media added 1 hour before treatment with FLM-c2, D1-D3 for 3-48 hours. After treatment, media was removed and cells were washed with ice cold PBS. PBS was removed and cells were scraped into 1 mL of PBS containing 5.3 mM of EDTA and centrifuged at 2500 g for 2 min. PBS was removed and cells were lysed with lysis buffer (PBS, 0.1% NP-40, 0.1% sodium deoxycholate, 150 mM NaCl, 1 mM EDTA, 1 mM dithiothreitol, 1 mM phenylmethylsulfonyl fluoride, and IX protease inhibitor cocktail)^17 and mixed with RM-2L Intelli-mixer for 30 min at 4° C. Lysates were then centrifuged at 12,000 g for 20 min at 4° C. 20 μg of lysate was added to 4 μL of Bolt reducing agent and 10 μL of reducing buffer (both reagents supplied by Thermo Fisher Scientific) for a final volume of 40 μL with PBS. Samples were boiled and run on a gel, transferred to a membrane and blocked for 1 hour in 5% skim milk at 25° C. Membrane was probed with either EGFR antibody #2232, GAPDH antibody #2118 or BS-Actin antibody #4970 (Cell Signalling) at 1:1000 in 5% skim milk/TBST overnight at 4° C. Each membrane was washed three times with 50 mL TBST for 5 mins and then incubated with the relevant secondary α-rabbit IgG-HRP-linked antibody (1:1000), for 1 hour at room temperature. The membrane was washed as described above and imaged with the Licor Odyssey.
In general terms: Immunoblotting shows a protein as a band on a membrane.

Test [2] has as its target T1, EGFR. Briefly: EGFR and lysotracker staining in A549 cells. Type of test: cell-based. The arrangement: endogenous in cells; host or cells: A549. The conditions noted are these: A549, 16 hours. As to the method:
FIG. 5: (a) A549 cells were treated with DMSO (0.5%), EGF (50 ng/mL), or D1-D3 (1-100 μM) for 16 hours, before staining with lysotracker (red), fixing and staining with EGFR antibody (green). (b) EGFR signal, (c) EGFR membrane signal, (d) lysotracker signal and (e) EGFR speckle lysotracker signal (bars SEM) were quantified (n=3, >20 cells per replicate). Scale bars 20 μm.
To investigate the mechanism of how LYTAPS cause EGFR degradation, LYTAPs D1-D3 (1-100 μM) were incubated on A549 cells for 16 hours, with DMSO (0.5%) and high EGF (50 ng/mL) used as controls. Cells were then stained with Lysotracker, fixed and stained with EGFR-antibody. Under DMSO control, the majority of EGFR signal is present at the membrane (FIG. 5a).

Another test deals with T2, EGF-EGFR interaction (Homo sapiens, UniProt P00533).
T2 construct: purchased Perkin-Elmer
T2 sequence (P00533 25-645 limits assumed): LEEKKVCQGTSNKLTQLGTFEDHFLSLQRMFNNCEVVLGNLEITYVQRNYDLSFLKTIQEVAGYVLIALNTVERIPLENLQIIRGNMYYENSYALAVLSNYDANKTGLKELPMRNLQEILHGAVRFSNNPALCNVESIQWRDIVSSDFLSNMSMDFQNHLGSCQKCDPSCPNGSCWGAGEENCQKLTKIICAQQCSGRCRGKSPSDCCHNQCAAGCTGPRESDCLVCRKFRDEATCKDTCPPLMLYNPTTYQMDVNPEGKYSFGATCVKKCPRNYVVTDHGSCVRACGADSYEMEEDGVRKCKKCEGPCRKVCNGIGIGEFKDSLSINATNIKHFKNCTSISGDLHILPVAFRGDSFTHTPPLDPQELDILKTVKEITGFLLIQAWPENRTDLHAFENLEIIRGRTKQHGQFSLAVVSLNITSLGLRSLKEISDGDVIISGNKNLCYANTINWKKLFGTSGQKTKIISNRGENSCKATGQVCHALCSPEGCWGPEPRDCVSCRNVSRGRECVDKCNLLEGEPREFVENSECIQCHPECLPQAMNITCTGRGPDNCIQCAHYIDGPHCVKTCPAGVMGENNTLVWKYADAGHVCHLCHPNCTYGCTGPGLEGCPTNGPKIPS
Briefly: EGF-EGFR AlphaLISA assay. In kind it is binding. The conditions noted are these: in vitro AlphaLISA; for inhibition of the EGF/EGFR interaction: 0.01-200 μM. As to the method:
FIG. 2. […] Representation of the molecules are as described in FIG. 1.
The AlphaLISA EGF/EGFR binding kit (Perkin-Elmer) was used as per the manufacturer's instructions. […] Finally, 5 μL of EGFR acceptor beads were added, and fluorescence imaged on a plate reader.
In general terms: Alpha assays give light when donor and acceptor beads are brought close together.

For test [3], the target named is T1, EGFR. In words: Live cell imaging, EGFR-EGFP and lysotracker in PC-3 cells. In kind it is cell-based. Conditions: PC-3, EGFR-EGFP and lysotracker, 100 μM, 24 hours. As to the method:
as §1
PC-3 cells were seeded in a 24 well glass-bottom plate at 50 000 cells/well and incubated overnight at 37° C. and 5% CO2. Complete media was removed, wells washed with 500 μL of warm PBS for 1 min then removed and 500 μL serum free medium was added and left to incubate for one hour at 37° C. and 5% CO2. Cells were co-transfected with plasmids encoding fusion protein EGFR-EGFP (Addgene plasmid #32751, a gift from Alexander Sorkin) using Lipofectamine 3000 (Thermo Fisher Scientific) as per the manufacturer's instructions. Cells were incubated for 48 hours at 37° C. and 5% CO2, after which transfection efficiency was determined through observation of EGFP and signal with a confocal microscope LSM 800 (Zeiss). LysoTracker far red (Thermo Fisher Scientific) was incubated at 1 μM for 37° C. and 5% CO2. Cells were washed three times with PBS and serum free media was added to cells, Either DMSO (0.5%) or D3 (100 μM) were added overnight at 37° C. and 5% CO2 before imaging on the confocal microscope LSM 800 (Zeiss).

For test [4], the system named is CRC and NSCLC cancer cell lines. In words: Proliferation assays in CRC and NSCLC cancer cell lines.
For another test, the system named is pERK. In words: pERK immunofluorescence in A549 cells after EGF stimulation. Conditions: A549, 100 μM for 16 hours, then EGF 10 ng/mL. Type of test: cell-based. As to the method:
FIG. 6: A549 cells were treated with DMSO or D1-D3 (10-100 μM) for 16 hours before incubation with EGF (10 ng/mL) for 30 minutes, before cells were fixed and stained for pERK (green). Scale bars 20 μm, n=3, >20 cells per replicate.
To examine whether LYTAPs can inhibit EGFR downstream signalling, A549 cells were pre-incubated with 10-100 μM of D1-D3 for 16 hours, before stimulation with EGF (10 ng/mL) for […]. Cells were then fixed and immunofluorescently stained for pERK.

The subject of another test is SW48 and SW48G12V. Briefly: Combination cell viability in isogenic CRC cell lines. Type of test: cell-based. The conditions noted are these: D1 0.001-100 μM with cetuximab 0.02-30 μg/mL, 72 hours.
For test [5], the system named is NSCLC cell lines H3255 and H1975. In words: Combination cell viability in NSCLC cell lines. Type of test: cell-based. Conditions: H3255 and H1975, 72 hours.
The subject of test [6] is EGFR, Rab5 and hGIIA localisation. In words: Live cell imaging of EGFR, Rab5 and hGIIA localisation in PC-3 cells. The conditions noted are these: PC-3, Lapatinib 5 μM, control for EGFR inhibition. In kind it is cell-based.
Method: (e) PC-3 cells co-transfected with Rab5-mCherry (red), EGFR-GFP (green) and treated with hGIIA/AF647 (purple) as well as c2 at 1 μM and 10 μM for 24 hours. EGF (25 ng/mL) and Lapatinib (5 μM) were used as control treatments. N=3, >5 cells per replicate.
The effect of c2 on EGFR, Rab5 and hGIIA localisation was also examined in PC-3 cells. PC-3 cells were co-transfected with EGFR-EGFP and Rab5-mCherry before treatment with hGIIA/AF647 and c2 at 0, 1 and 10 μM.
Setting [7] is: read-out: Resistance (value in brackets).

`C#Cc1cccc(Nc2ncnc3cc(OCCOC)c(OCCOC)cc23)c1` [erlotinib]: the Resistance result in the test on H3255 is given as “Erlotinib sensitive”; in the test on H1975 it was “Erlotinib resistant”. Besides, the IC50 in the test on H3255 (setting [7]) is 0.04 µM; with H1975 (setting [7]), 4.3 µM.

With `CC(C)C[C@@H]1NC(=O)[C@@H](Cc2ccccc2)NC(=O)[C@H](CCCNC(=N)N)NC(=O)[C@H](Cc2ccc3ccccc3c2)NC(=O)[C@H](CO)NC1=O` [Compound D2, cyclo[(D-Phe)-Leu-Ser-(L-2Nal)-Arg]] (cyclo([2Nal]R[dF]LS)), at EGFR [1], the “recovery of EGFR levels” value was “returned to normal by 24 and 48 hours”. The “lysotracker signal of endocytosed EGFR speckles” value at EGFR [2] (1 μM) is recorded as “significantly increased lysotracker signal”. Further, on EGFR [2] (1 μM, vs DMSO), the EGFR signal result is on record as “significant reduction in EGFR signal”. For the same compound, the lysotracker signal result on EGFR [2] (100 μM) is “increased lysotracker signal”. Also, at EGF-EGFR interaction, the “potency order in inhibiting the EGF/EGFR interaction” value is reported as “FLM-c2>D1>D2>D3” and the “inhibition of the EGF/EGFR interaction” value is “inhibited the EGF/EGFR interaction at high concentrations”.

Regarding `CC(C)C[C@@H]1NC(=O)[C@@H](Cc2ccccc2)NC(=O)[C@H](CCCNC(=N)N)NC(=O)[C@H](Cc2ccccc2)NC(=O)[C@H](CO)NC1=O` [Compound D3, cyclo[(D-Phe)-Leu-Ser-(L-Phe)-Arg)]] (cyclo(FR[dF]LS)), the “colocalization of EGFR with lysosomes” value at EGFR [3] was “confirmed colocalization of EGFR with lysosomes”. On EGFR [2] (1 μM, vs DMSO), the EGFR signal entry is “significant reduction in EGFR signal”. For the same compound, at EGFR [2] (100 μM), the “lysotracker signal of endocytosed EGFR speckles” value is listed as “significantly increased lysotracker signal”. Besides, at EGF-EGFR interaction, the “potency order in inhibiting the EGF/EGFR interaction” value is listed as “FLM-c2>D1>D2>D3” and the “inhibition of the EGF/EGFR interaction” value was “inhibited the EGF/EGFR interaction at high concentrations”.

With `CC(C)C[C@@H]1NC(=O)[C@@H](Cc2cccc3ccccc23)NC(=O)[C@H](CCCNC(=N)N)NC(=O)[C@H](Cc2ccc3ccccc3c2)NC(=O)[C@H](CO)NC1=O` [Compound D1, cyclo[(D-1Nal)-Leu-Ser-(L-2Nal)-Arg]] (cyclo([2Nal]R[d1Nal]LS)), the “IC50 compared with c2, D2 and D3” value in test [4] (H3255, HCC827, H1975, HCT116, SW48, SW48G12V, HT29, RKO, 0.01-300 μM, 72 hours) is “lowest IC50 in all cell lines”. Also, the “efficacy in NSCLC cell lines sensitive and resistant to erlotinib” value in [4] (HCC827, H1975 and H3255) is “retained efficacy”. Besides, the “efficacy in cetuximab sensitive and resistant cell lines” value in test [4] (SW48 vs SW48G12V, HT29, HCT116 and RKO) was “comparable efficacy”. The “pERK signal, comparison among LYTAPs” value in the test on pERK is reported as “largest effect”. Besides, the synergy with cetuximab entry in the test with SW48 and SW48G12V is listed as “significant synergy”. In test [5], the synergy with cetuximab entry is given as “potent synergy”; the “synergy with cetuximab, U0126 and chloroquine” value was “exhibited synergy with all three”. Also, the “recovery of EGFR levels” value on EGFR [1] is “returned to normal by 24 and 48 hours”. Also, the “lysotracker signal of endocytosed EGFR speckles” value on EGFR [2] (1 μM) is given as “significantly increased lysotracker signal”. For the same compound, on EGFR [2] (1 μM, vs DMSO), the EGFR signal result is “significant reduction in EGFR signal”. Also, on EGFR [2] (100 μM), the lysotracker signal entry is listed as “increased lysotracker signal” and the “lysotracker signal of endocytosed EGFR speckles” value is on record as “significantly increased lysotracker signal”. Besides, at EGFR [2] (100 μM, vs DMSO), the “fraction of membrane-localised EGFR signal” value was “significantly reduced”. On EGF-EGFR interaction, the “potency order in inhibiting the EGF/EGFR interaction” value is “FLM-c2>D1>D2>D3” and the “inhibition of the EGF/EGFR interaction” value is given as “inhibited the EGF/EGFR interaction at high concentrations”.

As for `CS(=O)(=O)CCNCc1ccc(-c2ccc3ncnc(Nc4ccc(OCc5cccc(F)c5)c(Cl)c4)c3c2)o1` [Lapatinib], the “effect on EGFR, Rab5 and hGIIA localisation” value in test [6] is “altering the localisation of hGIIA and Rab5 to become less punctate and more cytosolic”.
